Measured values reported in US20250115597A1, “TYK2 INHIBITORS AND COMPOSITIONS AND METHODS THEREOF” (LYNK PHARMACEUTICALS CO. LTD., priority 2021, published 2025).

Tests used:
pSTAT1 [1] = assay: Phosphorylation inhibition of STAT in human PBMC, IFN-alpha stimulated (flow cytometry); assay type: cell-based; details: 20 min; human PBMC, IFN-alpha 20 mins, CD3 cells; read-out: IC50 on pSTAT1 inhibition in hPBMC
Description: Phosphorylation Inhibition of STAT in Human PBMC and Human Whole Blood Testing:
The inhibitory potential of test articles in human PBMC and human whole blood assay was evaluated by the method of flow cytometry.
IFN-alpha will activate JAK1 and TYK2 kinase in T cells by binding to IFN receptors, and then lead to phosphorylation of STAT1 and STAT2. The phosphorylated STAT1 enter nuclear and promote transcription and expression of IFN-gamma. To evaluate the efficacy of TYK2i in T cells, freshly prepared human PBMC or freshly collected human whole blood will be stimulated with certain unit of human IFN-alpha (Universal Type I IFN(1MU), R&D, 11200-2) for 20 mins in incubator. After stimulation, fix cells with Phosflow™ Fix Buffer I (BD, 557870), and then collect fixed cells by centrifugation (500 g, 8 min). Wash cells once with pre-cooled PBS, and then permeabilize cells with cold Perm Buffer III buffer (BD, 558050) for 45 mins on ice. Collect cells by centrifugation (600 g, 8 min) and washed twice with cold PBS. Stain cells with anti-human CD3 (FITC Mouse Anti-Human CD3, BD, 555332) and anti-pSTAT1_Y701(Alexa Fluor 647 Mouse Anti-Stat1 (pY701), BD, 612597) antibodies. Detect pSTAT1 by flow cytometry (CytoFlex S) and analyze data with FlowJo and GraphPad Prism 8 software. IC50 values of test articles were determined using 4-parameter logistic equation.

[2] = target: T1, Ba/F3-FL-TYK2-P760L cells (Homo sapiens, UniProt P29597, P760L, cells depend on it); assay: Anti-proliferative assay, Ba/F3-FL-TYK2-P760L cells (Cell-Titer Glo); assay type: cell-based; details: 72 h, read-out: BaF3-FL-T2P760L IC50
T1 construct: BaF3-FL-T2P760L (nM)
T1 sequence (P29597 whole entry P760L): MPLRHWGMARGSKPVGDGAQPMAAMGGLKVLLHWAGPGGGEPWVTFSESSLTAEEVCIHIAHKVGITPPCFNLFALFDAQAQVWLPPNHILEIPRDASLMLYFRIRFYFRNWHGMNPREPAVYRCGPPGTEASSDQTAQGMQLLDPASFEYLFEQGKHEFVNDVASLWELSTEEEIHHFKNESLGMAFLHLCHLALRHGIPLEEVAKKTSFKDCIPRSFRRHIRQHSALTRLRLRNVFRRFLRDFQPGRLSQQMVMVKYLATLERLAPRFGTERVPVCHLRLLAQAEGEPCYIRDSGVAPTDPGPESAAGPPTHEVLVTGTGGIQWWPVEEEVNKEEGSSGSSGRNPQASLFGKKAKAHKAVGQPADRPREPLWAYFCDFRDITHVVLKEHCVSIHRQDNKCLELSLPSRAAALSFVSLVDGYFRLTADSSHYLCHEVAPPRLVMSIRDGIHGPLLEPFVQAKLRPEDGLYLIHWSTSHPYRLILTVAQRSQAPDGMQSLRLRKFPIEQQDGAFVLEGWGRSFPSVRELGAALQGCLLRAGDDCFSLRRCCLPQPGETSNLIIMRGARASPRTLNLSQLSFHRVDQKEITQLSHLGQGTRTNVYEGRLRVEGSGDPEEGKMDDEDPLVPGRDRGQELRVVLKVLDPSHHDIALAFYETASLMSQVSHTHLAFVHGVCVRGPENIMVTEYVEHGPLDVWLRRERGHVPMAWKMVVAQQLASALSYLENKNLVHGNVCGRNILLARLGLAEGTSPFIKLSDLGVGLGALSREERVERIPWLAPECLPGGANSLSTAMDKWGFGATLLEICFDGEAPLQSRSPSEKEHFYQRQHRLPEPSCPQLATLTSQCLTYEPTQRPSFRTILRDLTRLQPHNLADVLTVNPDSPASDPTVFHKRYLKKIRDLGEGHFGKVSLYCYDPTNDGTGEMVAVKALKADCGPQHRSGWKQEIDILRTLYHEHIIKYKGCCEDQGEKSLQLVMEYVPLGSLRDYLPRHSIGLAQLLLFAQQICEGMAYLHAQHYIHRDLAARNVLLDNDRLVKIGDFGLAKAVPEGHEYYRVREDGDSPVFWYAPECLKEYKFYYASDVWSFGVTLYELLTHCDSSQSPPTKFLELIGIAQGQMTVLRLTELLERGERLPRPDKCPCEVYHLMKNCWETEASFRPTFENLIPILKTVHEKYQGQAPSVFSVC
Procedure, shortened: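 Ba/F3 cells made IL-3-independent by TEL-fused or full-length mutant JAK-family kinases, seeded at 2000/well and dosed after 24 h with 9 three-fold dilutions topping at 20 μM. Viability after 72 h at 37 °C, 5% CO2 by Cell-Titer Glo ATP luminescence.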

[3] = Hepatocytes metabolic stability assay; assay type: in vitro ADME; details: cryopreserved hepatocytes, human hepatocytes, 1.0×10^6 cells/mL; for CLint scaled at 1 μM: read-out: Human hepatocyte Clint(liver); for half-life at 1 μM: read-out: Human hepatocyte stability T1/2
Procedure, shortened: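 Cryopreserved hepatocytes (1.0×10^6 cells/mL final) were incubated with test compound at 1 μM at 37 °C and sampled at 0, 15, 30, 60 and 120 min, with acetonitrile quench and LC-MS/MS. k came from log-linear % remaining versus time, giving T1/2 and CLint.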

TYK2-JH2 domain = target: T2, TYK2-JH2 domain (Homo sapiens, UniProt P29597); assay: Binding activity test for JH2 domain of TYK2 (Tb-antibody/tracer FRET); details: for JAK1/TYK2 selectivity: ratio JAK1-JH2 IC50 / TYK2-JH2 IC50
T2 construct: IC50 on JH2 domain activity (nM)
T2 sequence (P29597 589-875 limits assumed): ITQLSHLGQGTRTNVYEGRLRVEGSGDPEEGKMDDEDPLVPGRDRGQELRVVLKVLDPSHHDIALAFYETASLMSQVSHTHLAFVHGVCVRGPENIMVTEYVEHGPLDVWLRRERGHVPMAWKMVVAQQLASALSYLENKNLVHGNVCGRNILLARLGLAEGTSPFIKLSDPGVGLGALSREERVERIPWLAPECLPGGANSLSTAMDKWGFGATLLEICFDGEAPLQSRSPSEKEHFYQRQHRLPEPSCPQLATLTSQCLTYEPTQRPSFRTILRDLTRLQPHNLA
Procedure, shortened: (§1)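 Compounds tested as 11-point 3-fold serial dilutions against the JH2 domain in a Tb-antibody/tracer FRET binding format. Plates incubated 60 min at 25° C, then overnight at 4° C, before FRET reading.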

JAK1-JH2 domain = target: T3, JAK1-JH2 domain (Homo sapiens, UniProt P23458); assay: Binding activity test for JH2 domain of JAK1 (Tb-antibody/tracer FRET)
T3 construct: IC50 on JH2 domain activity (nM)
T3 sequence (P23458 583-855 limits assumed): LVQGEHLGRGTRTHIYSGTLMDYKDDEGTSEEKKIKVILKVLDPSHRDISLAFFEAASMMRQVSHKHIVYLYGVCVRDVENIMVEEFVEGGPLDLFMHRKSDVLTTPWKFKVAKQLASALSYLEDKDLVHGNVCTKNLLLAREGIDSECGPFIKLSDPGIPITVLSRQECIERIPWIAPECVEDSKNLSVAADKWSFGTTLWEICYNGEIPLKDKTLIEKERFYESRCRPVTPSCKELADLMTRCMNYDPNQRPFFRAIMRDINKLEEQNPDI
Procedure, shortened: as §1

pSTAT1 [4] = assay: Phosphorylation inhibition of STAT in human whole blood, IFN-alpha stimulated (flow cytometry); assay type: cell-based; details: 20 min; human whole blood, IFN-alpha 20 mins, CD3 cells; read-out: IC50 on pSTAT1 inhibition in h WB
Procedure, shortened: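 Freshly prepared PBMC or freshly collected whole blood stimulated with human Universal Type I IFN-alpha for 20 min, then fixed, permeabilized on ice and stained for CD3 and pSTAT1 (Y701). pSTAT1 read by flow cytometry; IC50 from 4-parameter logistic fit.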

JAK2 = target: T4, JAK2 (Homo sapiens, UniProt O60674); assay: JAK2 kinase activity, microfluidic assay (Caliper EZ Reader II); assay type: biochemical; details: JAK2 0.125 nM, 1 mM ATP
T4 construct: purchased Carna Biosciences
T4 sequence (O60674 whole entry): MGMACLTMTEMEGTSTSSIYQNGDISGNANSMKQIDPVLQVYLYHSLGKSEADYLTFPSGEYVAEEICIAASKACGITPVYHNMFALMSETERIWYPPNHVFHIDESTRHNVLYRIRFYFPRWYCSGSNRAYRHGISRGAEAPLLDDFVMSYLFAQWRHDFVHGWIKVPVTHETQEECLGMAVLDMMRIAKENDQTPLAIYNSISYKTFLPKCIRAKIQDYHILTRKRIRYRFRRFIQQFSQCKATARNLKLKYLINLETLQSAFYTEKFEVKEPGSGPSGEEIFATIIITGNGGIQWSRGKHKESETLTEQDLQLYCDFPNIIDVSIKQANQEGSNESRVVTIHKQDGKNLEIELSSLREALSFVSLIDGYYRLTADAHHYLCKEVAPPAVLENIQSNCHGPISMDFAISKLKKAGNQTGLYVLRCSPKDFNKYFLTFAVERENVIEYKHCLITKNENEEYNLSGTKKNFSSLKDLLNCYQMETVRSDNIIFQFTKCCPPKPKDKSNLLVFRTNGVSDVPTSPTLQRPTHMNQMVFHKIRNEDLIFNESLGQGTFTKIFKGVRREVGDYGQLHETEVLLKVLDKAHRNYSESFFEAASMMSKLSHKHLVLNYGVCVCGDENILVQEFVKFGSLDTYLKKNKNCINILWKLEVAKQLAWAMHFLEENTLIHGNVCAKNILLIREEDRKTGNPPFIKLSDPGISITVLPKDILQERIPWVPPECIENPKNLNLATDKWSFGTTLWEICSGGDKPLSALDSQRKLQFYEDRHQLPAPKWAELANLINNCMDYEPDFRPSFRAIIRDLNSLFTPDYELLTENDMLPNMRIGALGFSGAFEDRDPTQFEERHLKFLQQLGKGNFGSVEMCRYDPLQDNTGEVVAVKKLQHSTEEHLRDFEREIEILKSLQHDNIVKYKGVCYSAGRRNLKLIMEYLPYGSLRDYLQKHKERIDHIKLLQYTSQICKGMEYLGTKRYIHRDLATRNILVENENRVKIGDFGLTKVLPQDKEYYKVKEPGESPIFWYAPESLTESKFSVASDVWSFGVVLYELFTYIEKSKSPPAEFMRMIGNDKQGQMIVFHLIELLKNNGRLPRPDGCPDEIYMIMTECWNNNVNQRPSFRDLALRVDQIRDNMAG
Procedure, shortened: (§2)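 Human JAK1, JAK2 or TYK2 enzyme was used in 50 mM HEPES, 10 mM MgCl2, 2 mM DTT and 0.01% Brij35, tuned to 10% conversion of a FAM-labelled peptide. Threefold dilutions of compound (top 5 µM, 1% DMSO) were pre-incubated with enzyme for 10 min, and reactions were stopped with EDTA. Phosphorylation was read by microfluidic mobility shift, and IC50 came from percent-inhibition curves.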

TYK2 = target: T5, TYK2 (Homo sapiens, UniProt P29597); assay: TYK2 kinase activity, microfluidic assay (Caliper EZ Reader II); assay type: biochemical; details: TYK2 1 nM, 1 mM ATP
T5 construct: purchased Carna Biosciences
T5 sequence (P29597 whole entry): as the sequence (P29597 whole entry P760L) above, with L760P counted along it
Procedure, shortened: as §2

[5] = Plasma protein binding by equilibrium dialysis; assay type: in vitro ADME; details: human plasma, equilibrium dialysis 5 hours at 37° C.; read-out: % Bound (human) (converted)
Procedure, shortened: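 Compound spiked into plasma at 0.2 and 2 μM was dialyzed against PBS for 5 h at 37° C with shaking, in duplicate. Plasma and buffer chambers were matrix-matched, protein-precipitated and analysed by LC-MS/MS to derive % unbound, % bound and % recovery.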

JAK1 = target: T6, JAK1 (Homo sapiens, UniProt P23458); assay: JAK1 kinase activity, microfluidic assay (Caliper EZ Reader II); assay type: biochemical; details: JAK1 5 nM, 1 mM ATP
T6 construct: purchased Carna Biosciences
T6 sequence (P23458 whole entry): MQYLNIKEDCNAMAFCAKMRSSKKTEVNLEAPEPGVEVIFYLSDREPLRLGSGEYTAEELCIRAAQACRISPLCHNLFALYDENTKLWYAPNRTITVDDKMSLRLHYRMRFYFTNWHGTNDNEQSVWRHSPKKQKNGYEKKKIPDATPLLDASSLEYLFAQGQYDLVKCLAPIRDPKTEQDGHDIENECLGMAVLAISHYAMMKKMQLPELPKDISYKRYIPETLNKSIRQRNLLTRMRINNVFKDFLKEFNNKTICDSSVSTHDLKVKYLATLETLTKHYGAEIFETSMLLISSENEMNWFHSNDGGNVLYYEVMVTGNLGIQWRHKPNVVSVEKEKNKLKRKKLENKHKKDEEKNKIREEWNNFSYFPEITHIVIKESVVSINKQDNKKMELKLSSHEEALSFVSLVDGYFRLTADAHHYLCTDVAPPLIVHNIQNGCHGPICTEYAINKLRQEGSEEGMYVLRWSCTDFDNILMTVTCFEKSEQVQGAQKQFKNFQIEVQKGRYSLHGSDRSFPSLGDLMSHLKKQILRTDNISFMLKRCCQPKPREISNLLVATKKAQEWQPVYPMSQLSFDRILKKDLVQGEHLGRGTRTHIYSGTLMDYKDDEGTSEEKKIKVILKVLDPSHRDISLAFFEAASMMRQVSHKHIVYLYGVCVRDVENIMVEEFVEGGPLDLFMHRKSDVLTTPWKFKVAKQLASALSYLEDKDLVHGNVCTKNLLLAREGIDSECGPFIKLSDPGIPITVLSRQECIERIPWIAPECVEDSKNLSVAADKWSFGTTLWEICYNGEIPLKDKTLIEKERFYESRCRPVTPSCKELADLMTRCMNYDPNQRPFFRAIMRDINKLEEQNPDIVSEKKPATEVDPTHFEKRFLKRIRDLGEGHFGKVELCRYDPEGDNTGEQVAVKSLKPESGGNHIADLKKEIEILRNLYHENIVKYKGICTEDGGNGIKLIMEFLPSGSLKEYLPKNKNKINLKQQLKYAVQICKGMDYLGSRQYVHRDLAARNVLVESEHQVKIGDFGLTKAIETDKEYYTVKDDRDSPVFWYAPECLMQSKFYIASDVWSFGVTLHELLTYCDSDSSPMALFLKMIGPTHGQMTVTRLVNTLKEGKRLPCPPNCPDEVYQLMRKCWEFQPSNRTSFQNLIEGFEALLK
Procedure, shortened: as §2

Row | SMILES | IC50 (pSTAT1 [1]) [nM] | GI50 [2] [nM] | CLint scaled at 1 μM [3] [mL/min/kg] | half-life at 1 μM [3] [h] | IC50 (TYK2-JH2 domain) [nM] | JAK1/TYK2 selectivity (TYK2-JH2 domain) | IC50 (JAK1-JH2 domain) [nM] | IC50 (pSTAT1 [4]) [nM] | IC50 (JAK2) [nM] | IC50 (TYK2) [nM] | fraction unbound at 5 h [5] | IC50 (JAK1) [nM]
1 | [2H]C([2H])([2H])NC(=O)c1cnc(NC(=O)C2CC2)cc1Nc1ccn2ncc(CC)c2c1OC [Example 166, 6-(Cyclopropanecarboxamido)-4-((3-ethyl-4-methoxypyrazolo[1,5-a]pyridin-5-yl)amino)-N-(methyl-d3)nicotinamide] | 20.7 | 51.6 | 11.2 | 2.61 | 0.154 | 88.3 | 13.6 | 471 | – | – | – | –
2 | [2H]C([2H])([2H])NC(=O)c1cnc(NC(=O)C2CC2)cc1Nc1ccn2ncc(C)c2c1OC [Example 169, 6-(Cyclopropanecarboxamido)-4-((4-methoxy-3-methylpyrazolo[1,5-a]pyridin-5-yl)amino)-N-(methyl-d3)nicotinamide] | 35.1 | 64.9 | 8.6 | 3.44 | 0.31 | 28.3 | 8.76 | 422 | – | – | – | –
3 | [2H]C([2H])([2H])NC(=O)c1cnc(NC(=O)C2CC2)cc1Nc1ccc2cnn(CC#N)c2c1OC [Example 202, 4-((1-(Cyanomethyl)-7-methoxy-1H-indazol-6-yl)amino)-6-(cyclopropanecarboxamido)-N-(methyl-d3)nicotinamide] | 33.3 | 45.7 | – | – | – | – | – | 147 | > 5000 | > 5000 | 0.113 | > 5000
4 | [2H]C([2H])([2H])NC(=O)c1cnc(NC(=O)C2CC2)cc1Nc1cn(CC2CC2)c2ncn(CC)c(=O)c12 [Example 213, 6-(Cyclopropanecarboxamido)-4-((7-(cyclopropylmethyl)-3-ethyl-4-oxo-4,7-dihydro-3H-pyrrolo[2,3-d]pyrimidin-5-yl)amino)-N-(methyl-d3)nicotinamide] | 107 | 74.5 | – | – | 0.25 | – | – | 376 | – | – | 0.025 | –
